Test results published in article PMC6749236, “Synthesis of Novel 2-(Het)arylpyrrolidine Derivatives and Evaluation of Their Anticancer and Anti-Biofilm Activity” (Molecules, 2019).

Experiments:
Chang liver cell line = experiment: Cytotoxicity assay (Cytell Cell Imaging), normal cell line; type: cell-based; settings: Homo sapiens, read-out: IC50 Normal Cell Line Chang Liver
M-Hela = experiment: Cytotoxicity assay (Cytell Cell Imaging, DAPI/propidium iodide), cancer cell line; type: cell-based; settings: Homo sapiens, M-HeLa, read-out: IC50 Cancer Cell Line M-Hela
[1] = system: early apoptosis markers (Caspase-8, Caspase-9) in M-Hela cell lysates; experiment: Multiplex analysis of early apoptosis markers (MILLIPLEX MAP 7-plex, Luminex); type: cell-based, human; settings: 24 h, IC50 concentration of 14.7 µM
Description: Multiplex analysis of early apoptosis markers. Next, using the MILLIPLEX® MAP 7-plex Early Phase Apoptosis Signaling kit, seven markers of early apoptosis of JNK, Bad, Bcl-2, Akt, Caspase-9, p53, and Caspase-8 were detected in M-Hela cell lysates. The median fluorescence intensity (MFI) was measured using the Luminex® system. This assay is a quick and convenient alternative to Western blot and immunoprecipitation.
Multiplex analysis of early apoptosis markers. M-Hela cells were incubated for 24 hours with the test substance. Cells were lysed in MILLIPLEX® MAP Lysis buffer containing protease inhibitors. Twenty micrograms of total protein of each lysate diluted in MILLIPLEX® MAP Assay Buffer 2 was analyzed according to the analysis protocol (the lysate was incubated at 4 °C overnight). The mean fluorescence intensity (MFI) was detected using the Luminex® system, MERCK, USA.

M-Hela cells [2] = experiment: Induction of apoptotic effects (annexin V-Alexa Fluor 647, Cytell); type: cell-based, human; settings: 24 hours of treatment, concentration corresponding to the IC50 value (14.7 μM)
Description: Induction of Apoptotic Effects by test compounds. Cell Culture. M-Hela cells at 1 × 10^6 cells/well in a final volume of 2 mL were seeded into six-well plates. After 24 hours of incubation, a solution of the test compound 6g was added to the wells at the concentration studied.
Cytell Cell Imaging System Assay. M-Hela cells were plated into a 24-well plate (Eppendorf) at a concentration of 1 × 10^6 cells/mL, 500 µL of medium per well, and cultured in a CO2 incubator at 37 °C. Twenty-four hours after seeding the cells into wells the compound was added at a preset dilution, 500 µL to each well. […] Evaluation of apoptotic effects was performed with the help of multifunctional system Cytell Cell Imaging, using Cell Viability BioApp and Automated Imaging BioApp applications. The annexin V-Alexa Fluor 647 apoptosis detection kit, DAPI and propidium iodide purchased from Sigma.
Statistical analysis. The experiments were repeated three times. The cytometric results were analyzed by the Cytell Cell Imaging multifunctional system using the Cell Viability BioApp and Apoptosis BioApp application. The data in the tables and graphs are given as the mean ± standard error.

M-Hela cells [3] = experiment: Mitochondrial membrane potential, JC-10 flow cytometry; type: cell-based, human; settings: IC50 concentration of 14.7 μM
Description: Effects on the mitochondrial membrane potential (Δψm) by lead compounds. In confirmation of data on the course of apoptosis in cells along an external pathway not associated with dysfunctional mitochondria, the ability of the tested compounds to reduce the potential of the mitochondrial membrane (Δψm) in M-Hela culture cells was examined using the example of compound 6g. Studies were performed using flow cytometry methods using JC-10 reagent. In normal cells with a high potential of the mitochondrial membrane, the dye JC-10 forms aggregates (J-aggregate) near the mitochondrial membranes. When the membrane potential due to the stimulation of apoptosis falls, JC-10 is evenly distributed in the cell as a monomer (J-monomer). JC-10 units in normal cells have red fluorescence, and JC-10 monomers are green. The ratio between orange-red and green fluorescence can be used to assess the onset of apoptosis. […] The results obtained indicate that the mechanism of action of the studied compounds is not associated with the induction of apoptosis, which proceeds along the mitochondrial pathway.
Flow Cytometry Assay. Mitochondrial membrane potential. […] After the cells were rinsed three times and suspended in PBS, the JC-10 fluorescence was observed by flow cytometry (Guava easy Cyte 8HT, Guava Technologies Inc., Hayward, CA, USA).

[4] = Water solubility (selection for parenteral administration); type: physicochemical
P388 murine leukemia = experiment: In vivo anti-tumor activity, i.p. implanted leukemia; design: species or system BDF1 hybrid male mice; settings: for ILS / MST ± SD / antitumor (anti-leukemic) activity, in words: days 1, 5, 9; for ILS / MST ± SD: P388; for Survival: day 60; for Survivors/Total: survivors on day 60; for antitumor (anti-leukemic) activity, in words: P388, dose range 18–83 mg/kg/day i.p.
Description: Animals. In vivo experiments were performed using the BDF1 hybrid male mice of 22–24 g weight. The experimental animals were caged in a standard vivarium in 12 h light conditions with free access to food and water. All manipulations with the animals were performed in accordance with the solutions of the Commission on Bioethics of the Institute of Problems of Chemical Physics, Russian Academy of Sciences (IPCP RAS).
Anti-tumor activity. The tumors were transplanted intraperitoneally (i.p.) in accordance with a standard procedure inoculum: 10^6 tumor cells in isotonic solution of NaCl, V = 0.2 cm^3 (leukemia P388). Original compounds were injected intraperitoneally as aqueous solution. Doses from 18 to 83 mg/kg/day and the mode of administration on days 1, 5, and 9 after transplantation were used. In each experiment, a single group of tumor-bearing animals not injected with the compounds served as the control group. Each group consisted of six mice. The animals were observed daily for survival for a minimum of 60 days. The efficacy of the therapy against leukemia (defined as increase in lifespan—ILS) was assessed as the percentage of the median survival time (MST) of the treated group (t) to that of the control group (c): ILS(%) = (MSTt/MSTc) × 100.
Statistics. The experiments were carried out in triplicate. The data are presented in the form X ± SD (mean ± standard deviation). The significance of the differences between the groups was assessed using Student’s t-test. Values of p < 0.05 were considered statistically significant. The data were processed statistically using GraphPad Prism.

SMILES	IC50 (Chang liver cell line)	IC50 (M-Hela)	solubility in water, in words [4]	ILS (P388 murine leukemia; 18 mg/kg/day i.p.)	MST ± SD (P388 murine leukemia; 18 mg/kg/day i.p.)	Survival (P388 murine leukemia; 18 mg/kg/day)	Survivors/Total (P388 murine leukemia; 18 mg/kg/day)	ILS (P388 murine leukemia; 26 mg/kg/day i.p.)	MST ± SD (P388 murine leukemia; 26 mg/kg/day i.p.)	Survival (P388 murine leukemia; 26 mg/kg/day)	Survivors/Total (P388 murine leukemia; 26 mg/kg/day)	ILS (P388 murine leukemia; 40 mg/kg/day i.p.)	MST ± SD (P388 murine leukemia; 40 mg/kg/day i.p.)	Survival (P388 murine leukemia; 40 mg/kg/day)	Survivors/Total (P388 murine leukemia; 40 mg/kg/day)	ILS (P388 murine leukemia; 55 mg/kg/day i.p.)	Survival (P388 murine leukemia; 55 mg/kg/day)	Survivors/Total (P388 murine leukemia; 55 mg/kg/day)	ILS (P388 murine leukemia; 83 mg/kg/day i.p.)	MST ± SD (P388 murine leukemia; 83 mg/kg/day i.p.)	also measured
O=C(NC1CCCCC1)N1CCCC1c1ccc(Nc2c([N+](=O)[O-])c(Cl)cc3c2no[n+]3[O-])cc1O (stereo not drawn) [6g, 6-Chloro-4-((4-(1-(cyclohexylcarbamoyl)pyrrolidin-2-yl)-3-hydroxyphenyl)amino)-5-nitrobenzo[c][1,2,5]oxadiazole 1-oxide]	46 ± 2.7 µM	14.7 ± 0.9 µM	–	–	–	–	–	–	–	–	–	–	–	–	–	–	–	–	–	–	melting point: 170 to 175 °C (dec.); fluorescence intensity of Caspase-8 versus control [1]: two times higher; fluorescence intensity of Caspase-9 versus control [1]: at the control level; M-Hela cells in which apoptosis was induced (M-Hela cells [2]): 25%; decrease in mitochondrial membrane potential (Δψm) (M-Hela cells [3]): No decrease
CN(C)CCNC(=O)N1CCCC1c1ccc(Nc2c([N+](=O)[O-])c(Cl)cc3c2no[n+]3[O-])cc1O.O=C(O)C(F)(F)F (stereo not drawn) [6h, 6-Chloro-4-((4-(1-((2-(dimethylammonio)ethyl)carbamoyl)pyrrolidin-2-yl)-3-hydroxyphenyl)amino)-5-nitrobenzo[c][1,2,5]oxadiazole 1-oxide 2,2,2-trifluoroacetate]	> 100 µM	100 ± 8.6 µM	water-soluble	37%	13.8 ± 0.6 days	0%	0/6	34%	13.5 ± 0.5 days	0%	0/6	27%	12.8 ± 0.7 days	0%	0/6	39%	0%	0/6	11%	11.2 ± 1.6 days	Survival (P388 murine leukemia; 83 mg/kg/day): 0%; Survivors/Total (P388 murine leukemia; 83 mg/kg/day): 0/6; antitumor (anti-leukemic) activity, in words (P388 murine leukemia): did not show antitumor properties
Cc1cc(O)c(C2CCCN2C(=O)NCCN(C)C)c(=O)o1.O=C(O)C(F)(F)F (stereo not drawn) [7h, 2-(2-(4-Hydroxy-6-methyl-2-oxo-2H-pyran-3-yl)pyrrolidine-1-carboxamido)-N,N-dimethylethan-1-aminium 2,2,2-trifluoroacetate]	> 100 µM	> 100 µM	water-soluble	0%	11.0 ± 0.6 days	0%	0/6	0%	10.3 ± 0.2 days	0%	0/6	0%	10.2 ± 0.2 days	0%	0/6	0%	0%	0/6	0%	10.3 ± 0.2 days	MST ± SD (P388 murine leukemia; 55 mg/kg/day i.p.): 10.7 ± 0.2 days; Survival (P388 murine leukemia; 83 mg/kg/day): 0%; Survivors/Total (P388 murine leukemia; 83 mg/kg/day): 0/6; antitumor (anti-leukemic) activity, in words (P388 murine leukemia): did not show antitumor properties
